From patent publication US8129423B2, “Imidazolone and imidazoloidinone derivatives as 11b-HSD1 inhibitors” (Hoffman-La Roche Inc., priority 2006, dated 2012)

Assays:
11beta-HSD1 [1] = target: T1, 11beta-HSD1 (Homo sapiens, UniProt P28845); assay: Microsome assay: cortisone to cortisol conversion, ELISA-based cortisol detection; assay type: biochemical; parameters: made in house; host or cells: HEK293 cells (ATCC CRL-1573), transient transfection with lipofectamine; microsomal fraction; details: microsomes from HEK293 cells transiently expressing human 11beta-HSD1; cortisone 50-200 nM, NADPH 1 mM, 60 min, 37° C.; read-out: h 11-beta-HSD 1 IC50
Description: The cDNA encoding the human 11beta-HSD1 protein was cloned into the expression vector pcDNA3 ([…]). This construct (for details see Alex Odermatt et al.; J Biol. Chem., 1999, Vol. 274, Issue 40, 28762-28770) was used to transiently express the protein in HEK293 cells (ATCC number: CRL-1573, described in Graham, F. L., Smiley, J., Russell, W. C., Nairn, R.; (1977)) using lipofectamine. 48 h after transfection cells were washed twice with ice-cold PBS (Phsophate buffered Saline). To 1 volume of cell suspension in PBS 2 volumes of ice-cold lysis buffer (50 mM Tris; pH7.5; 1 mM EDTA; 100 mM NaCl) were added. The cells were lysed by Potter-homogenization (20 strokes). The resulting homogenate was sonicated with a tip sonicator (10% output; 2×30 sec.) and cleared by a low speed centrifugation (10 min×9000 g; 4° C.). The microsomal fraction was collected by a high speed centrifugation (60 min×110,000 g). The resulting pellet was resuspended in storage buffer (20 mM Tris pH 7.5; 1 mM EDTA; 10% Glycerol) and the centrifugation was repeated. The resulting pellet containing the microsomal fraction was again taken up into storage buffer and aliquots were kept frozen in liquid Nitrogen until use.
Microsomes isolated from HEK293 cells transiently expressing human 11beta-HSD1 (for details see above) were incubated in assay buffer (100 mM NaCl; 1 mM EDTA; 1 mM EGTA; 1 mM MgCl; 250 mM Sucrose; 20 mM Tris pH 7.4; Cortisone 50-200 nM and NADPH 1 mM) together with different concentrations of test substances. After 60 min. of incubation at 37° C. the assay was stopped by heating to 80° C. (5 min.) and by addition of the inhibitor Carbenoxolone (1 uM). The amount of Cortisol produced in this assay was determined using a commercially available, ELISA-based Cortisol-detection kit (Distributed by Assay Design, Inc.). Inhibitors were characterized by their IC50 values, e.g. the concentration at which the production of cortisol was 50% reduced.

11beta-HSD1 [2] = target: T1, 11beta-HSD1; parameters: host or cells: in vivo treatment of human subjects; details: in man, treatment with carbenoxolone; cited from earlier work

T1 sequence (P28845 whole entry): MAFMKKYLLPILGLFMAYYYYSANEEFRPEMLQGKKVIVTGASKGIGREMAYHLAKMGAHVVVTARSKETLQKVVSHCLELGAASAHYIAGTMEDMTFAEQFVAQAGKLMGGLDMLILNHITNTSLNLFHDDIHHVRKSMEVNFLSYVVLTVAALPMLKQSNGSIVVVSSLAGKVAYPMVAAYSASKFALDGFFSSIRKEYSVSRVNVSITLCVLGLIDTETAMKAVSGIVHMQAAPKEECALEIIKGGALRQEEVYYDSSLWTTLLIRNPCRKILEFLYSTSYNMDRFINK

IC50 (11beta-HSD1 [1])	SMILES	insulin sensitivity (11beta-HSD1 [2])
39 nM	O=c1[nH]c(CC(F)(F)F)cn1C1C2CC3CC(C2)CC1C3 (stereo not shown) [Example 16, 1-Adamantan-2-yl-4-(2,2,2-trifluoro-ethyl)-1,3-dihydro-imidazol-2-one]	
192 nM	CC(C)Cc1cn(-c2ccccc2OC(F)(F)F)c(=O)n1CC1CC1 [Example 45, 3-Cyclopropylmethyl-4-isobutyl-1-(2-trifluoromethoxy-phenyl)-1,3-dihydro-imidazol-2-one]	
3 nM	CC1(C2CC2)CN(C2C3CC4CC2CC(O)(C4)C3)C(=O)N1C1CC1 (stereo not shown) [Example 80, 3,4-Dicyclopropyl-1-[(E)-5-hydroxy-adamantan-2-yl]-4-methyl-imidazolidin-2-one]	
	CC1(C)[C@@H](OC(=O)CCC(=O)O)CC[C@]2(C)[C@H]3C(=O)C=C4[C@@H]5C[C@@](C)(C(=O)O)CC[C@]5(C)CC[C@@]4(C)[C@]3(C)CC[C@@H]12 [carbenoxolone]	increase in insulin sensitivity
